Assay results: PubChem BioAssay AID220 (DTP/NCI, 2004)
“And” between values parts separate entries of the source, which are not always exact repeats. Identical values can stand only once. Records with an inconclusive call do not appear.

Test system: CD8F1 mice, subcutaneous mammary adenocarcinoma, T/C%
Assay: NCI In Vivo Anticancer Drug Screen. Data for tumor model Mammary Adenocarcinoma CD8F1 (subcutaneous) in CD8F1
Conditions: higher = larger tumour
In short: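 Transplantable tumors were established in mice, animals were dosed with compound or vehicle, and survival or tumor size was then measured in both groups. The treated result was divided by the control result.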

[1] = endpoint: median tumor weight (est.), dose: 6.25 mg/kg/injection, schedule: Q07DX005 (ip), vehicle: saline
[2] = endpoint: median tumor weight (est.), dose: 12.5 mg/kg/injection, schedule: Q07DX005 (ip), vehicle: Klucel (hydroxypropylcellulose) (HPC)
[3] = endpoint: median tumor weight (est.), dose: 25.0 mg/kg/injection, schedule: Q07DX005 (ip), vehicle: Klucel (hydroxypropylcellulose) (HPC)
[4] = endpoint: median tumor weight change, dose: 125.0 mg/kg/injection, schedule: Q01DX001 (ip), vehicle: saline with Tween-80
[5] = endpoint: median tumor weight change, dose: 250.0 mg/kg/injection, schedule: Q01DX001 (ip), vehicle: saline with Tween-80
[6] = endpoint: median tumor weight (est.), dose: 50.0 mg/kg/injection, schedule: Q07DX005 (ip), vehicle: water
[7] = endpoint: median tumor weight (est.), dose: 100.0 mg/kg/injection, schedule: Q07DX005 (ip), vehicle: water
[8] = endpoint: median tumor weight (est.), dose: 200.0 mg/kg/injection, schedule: Q07DX005 (ip), vehicle: water
[9] = endpoint: median tumor weight (est.), dose: 400.0 mg/kg/injection, schedule: Q07DX005 (ip), vehicle: water
[10] = endpoint: median tumor weight (est.), dose: 100.0 mg/kg/injection, schedule: Q07DX005 (ip), vehicle: saline with Tween-80
[11] = endpoint: median tumor weight (est.), dose: 200.0 mg/kg/injection, schedule: Q07DX005 (ip), vehicle: saline with Tween-80
[12] = endpoint: median tumor weight (est.), dose: 100.0 mg/kg/injection, schedule: Q07DX005 (ip), vehicle: Klucel (hydroxypropylcellulose) (HPC)

SMILES: N=C(N)CCCCCCCCC(=N)N
- T/C (endpoint: median tumor weight (est.), dose: 3.12 mg/kg/injection, schedule: Q07DX005 (ip), vehicle: Klucel (hydroxypropylcellulose) (HPC)): 67 % of control
- T/C (endpoint: median tumor weight (est.), dose: 3.12 mg/kg/injection, schedule: Q07DX005 (ip), vehicle: saline): 86 % of control
- T/C (endpoint: median tumor weight (est.), dose: 6.25 mg/kg/injection, schedule: Q07DX005 (ip), vehicle: Klucel (hydroxypropylcellulose) (HPC)): 123 % of control
- T/C [1]: 78 % of control
- T/C [2]: 34 % of control
- T/C (endpoint: median tumor weight (est.), dose: 12.5 mg/kg/injection, schedule: Q07DX005 (ip), vehicle: saline): 76 % of control
- T/C [3]: 31 % of control
- T/C (endpoint: median tumor weight (est.), dose: 25.0 mg/kg/injection, schedule: Q07DX005 (ip), vehicle: saline): 28 % of control
- T/C (endpoint: median tumor weight change, dose: 8.0 mg/kg/injection, schedule: Q01DX001 (ip), vehicle: saline): 61 % of control
- T/C (endpoint: median tumor weight change, dose: 15.63 mg/kg/injection, schedule: Q01DX001 (ip), vehicle: saline): 77 % of control
- T/C (endpoint: median tumor weight change, dose: 16.0 mg/kg/injection, schedule: Q01DX001 (ip), vehicle: saline): 186 % of control
- T/C (endpoint: median tumor weight change, dose: 31.25 mg/kg/injection, schedule: Q01DX001 (ip), vehicle: saline): 76 % of control
- T/C (endpoint: median tumor weight change, dose: 32.0 mg/kg/injection, schedule: Q01DX001 (ip), vehicle: saline): 48 % of control

SMILES: BrC[P+](CBr)(CBr)CBr
- T/C [4]: 124 % of control
- T/C [5]: 152 % of control

SMILES: CC(C)[C@](O)(C(=O)OCC1=CC[N+]2([O-])CC[C@@H](O)[C@@H]12)[C@H](C)O (stereo partly drawn)
- T/C (endpoint: median tumor weight (est.), dose: 25.0 mg/kg/injection, schedule: Q07DX005 (ip), vehicle: water): 81 % of control
- T/C [6]: 67 % of control
- T/C [7]: 42 % of control
- T/C [8]: 79 % of control
- T/C [9]: 59 % of control

SMILES: CCO/C=C1\SC(=S)N(c2ccccc2C)C1=O
- T/C (endpoint: median tumor weight (est.), dose: 12.5 mg/kg/injection, schedule: Q07DX005 (ip), vehicle: saline with Tween-80): 106 % of control
- T/C [10]: 115 % of control
- T/C [11]: 95 % of control
- T/C (endpoint: median tumor weight (est.), dose: 400.0 mg/kg/injection, schedule: Q07DX005 (ip), vehicle: saline with Tween-80): 67 % of control

SMILES: CC(C)NCC(O)COc1cccc2ccccc12 (stereo not drawn)
- T/C (endpoint: mean tumor weight, dose: 4.0 mg/kg/injection, schedule: Q07DX007 (ip), vehicle: Klucel (hydroxypropylcellulose) (HPC)): 61 % of control
- T/C (endpoint: mean tumor weight, dose: 8.0 mg/kg/injection, schedule: Q07DX007 (ip), vehicle: Klucel (hydroxypropylcellulose) (HPC)): 92 % of control
- T/C (endpoint: mean tumor weight, dose: 32.0 mg/kg/injection, schedule: Q07DX007 (ip), vehicle: Klucel (hydroxypropylcellulose) (HPC)): 88 % of control
- T/C (endpoint: mean tumor weight, dose: 64.0 mg/kg/injection, schedule: Q07DX007 (ip), vehicle: Klucel (hydroxypropylcellulose) (HPC)): 43 % of control

SMILES: CO[C@H](C(=O)[C@@H](O)[C@@H](C)O)[C@@H]1Cc2cc3cc(OC4CC(OC5CC(O)C(O)C(C)O5)C(O)C(C)O4)c(C)c(O)c3c(O)c2C(=O)[C@H]1OC1CC(OC2CC(OC3CC(C)(O)C(O)C(C)O3)C(O)C(C)O2)C(O)C(C)O1 (stereo partly drawn)
- T/C (endpoint: median tumor weight (est.), dose: 0.25 mg/kg/injection, schedule: Q07DX006 (ip), vehicle: saline): 76 % of control
- T/C (endpoint: median tumor weight (est.), dose: 0.5 mg/kg/injection, schedule: Q07DX006 (ip), vehicle: saline): 104 % of control
- T/C (endpoint: median tumor weight (est.), dose: 1.0 mg/kg/injection, schedule: Q07DX006 (ip), vehicle: saline): 78 % of control

SMILES: N#CC(OC1OC(COC2OC(CO)C(O)C(O)C2O)C(O)C(O)C1O)c1ccccc1 (stereo not drawn)
- T/C [6]: 71 % of control
- T/C [7]: 88 % of control
- T/C [8]: 112 % of control
- T/C [9]: 114 % of control
- T/C (endpoint: median tumor weight (est.), dose: 800.0 mg/kg/injection, schedule: Q07DX005 (ip), vehicle: water): 82 % of control

SMILES: CC(=O)OCC(=O)[C@@]12OC(C)(C)O[C@@H]1C[C@H]1[C@@H]3CC(C=O)=C4C=C(OCCCl)CC[C@]4(C)[C@@]3(F)[C@@H](O)C[C@@]12C
- T/C [3]: 41 % of control and 62 % of control
- T/C [12]: 1 % of control and 16 % of control
- T/C (endpoint: median tumor weight (est.), dose: 200.0 mg/kg/injection, schedule: Q07DX005 (ip), vehicle: Klucel (hydroxypropylcellulose) (HPC)): 1 % of control and 7 % of control
- T/C (endpoint: median tumor weight change, dose: 62.0 mg/kg/injection, schedule: Q01DX001 (ip), vehicle: Klucel (hydroxypropylcellulose) (HPC)): 32 % of control
- T/C (endpoint: median tumor weight change, dose: 62.5 mg/kg/injection, schedule: Q01DX001 (ip), vehicle: Klucel (hydroxypropylcellulose) (HPC)): 66 % of control

SMILES: Cc1c[nH]c(=O)[nH]c1=O
- T/C (endpoint: median tumor weight (est.), dose: 64.0 mg/kg/injection, schedule: Q07DX005 (ip), vehicle: Klucel (hydroxypropylcellulose) (HPC)): 214 % of control and 74 % of control
- T/C (endpoint: median tumor weight (est.), dose: 128.0 mg/kg/injection, schedule: Q07DX005 (ip), vehicle: Klucel (hydroxypropylcellulose) (HPC)): 112 % of control and 118 % of control

SMILES: CCCCC1CCCCCCc2[nH]c(/C=C3\N=C(c4ccc[nH]4)C=C3OC)cc21 (stereo not drawn)
- T/C (endpoint: median tumor weight change, dose: 0.38 mg/kg/injection, schedule: Q01DX001 (ip), vehicle: saline with Tween-80): 92 % of control
- T/C (endpoint: median tumor weight change, dose: 0.75 mg/kg/injection, schedule: Q01DX001 (ip), vehicle: saline with Tween-80): 78 % of control
- T/C (endpoint: median tumor weight change, dose: 1.5 mg/kg/injection, schedule: Q01DX001 (ip), vehicle: saline with Tween-80): 104 % of control
- T/C (endpoint: median tumor weight change, dose: 3.0 mg/kg/injection, schedule: Q01DX001 (ip), vehicle: saline with Tween-80): 102 % of control

SMILES: C[n+]1c(/C=N/NC(N)=S)ccc2ccccc21
- T/C (endpoint: median tumor weight change, dose: 62.5 mg/kg/injection, schedule: Q01DX001 (ip), vehicle: saline with Tween-80): 108 % of control
- T/C [4]: 181 % of control
- T/C [5]: 77 % of control

SMILES: C/C(=N\NC(=S)N1CCN(c2ccccn2)CC1)c1ccccn1
- T/C (endpoint: median tumor weight change, dose: 12.5 mg/kg/injection, schedule: Q01DX001 (ip), vehicle: other): 74 % of control
- T/C (endpoint: median tumor weight change, dose: 25.0 mg/kg/injection, schedule: Q01DX001 (ip), vehicle: other): 76 % of control
- T/C (endpoint: median tumor weight change, dose: 50.0 mg/kg/injection, schedule: Q01DX001 (ip), vehicle: other): 87 % of control

SMILES: C[N+](C)(C)c1cc2c(nn1)Nc1ccccc1S2
- T/C [2]: 86 % of control
- T/C [3]: 106 % of control
- T/C (endpoint: median tumor weight (est.), dose: 50.0 mg/kg/injection, schedule: Q07DX005 (ip), vehicle: Klucel (hydroxypropylcellulose) (HPC)): 107 % of control
- T/C [12]: 116 % of control

SMILES: CC1(C)CC23C4COC(=O)C2CCC1C3CC4=O (stereo not drawn)
- T/C (endpoint: median tumor weight (est.), dose: 18.0 mg/kg/injection, schedule: Q07DX005 (ip), vehicle: DMSO): 72 % of control
- T/C (endpoint: median tumor weight (est.), dose: 18.0 mg/kg/injection, schedule: Q07DX005 (ip), vehicle: Klucel (hydroxypropylcellulose) (HPC)): 98 % of control
- T/C (endpoint: median tumor weight (est.), dose: 36.0 mg/kg/injection, schedule: Q07DX005 (ip), vehicle: DMSO): 79 % of control
- T/C (endpoint: median tumor weight (est.), dose: 36.0 mg/kg/injection, schedule: Q07DX005 (ip), vehicle: Klucel (hydroxypropylcellulose) (HPC)): 89 % of control
- T/C (endpoint: median tumor weight (est.), dose: 72.0 mg/kg/injection, schedule: Q07DX005 (ip), vehicle: Klucel (hydroxypropylcellulose) (HPC)): 97 % of control
- T/C (endpoint: median tumor weight (est.), dose: 144.0 mg/kg/injection, schedule: Q07DX005 (ip), vehicle: Klucel (hydroxypropylcellulose) (HPC)): 71 % of control
- T/C (endpoint: median tumor weight (est.), dose: 288.0 mg/kg/injection, schedule: Q07DX005 (ip), vehicle: DMSO): 87 % of control
- T/C (endpoint: median tumor weight (est.), dose: 288.0 mg/kg/injection, schedule: Q07DX005 (ip), vehicle: Klucel (hydroxypropylcellulose) (HPC)): 66 % of control

SMILES: CCCCNCCCNCCCNC(=O)c1csc(-c2csc(CCNC(=O)C(NC(=O)C(C)C(O)C(C)NC(=O)C(NC(=O)c3nc(C(CC(N)=O)NCC(N)C(N)=O)nc(N)c3C)C(OC3OC(CO)C(O)C(O)C3OC3OC(CO)C(O)C(OC(N)=O)C3O)c3cnc[nH]3)C(C)O)n2)n1 (stereo not drawn)
- T/C (endpoint: median tumor weight (est.), dose: 4.0 mg/kg/injection, schedule: Q07DX005 (ip), vehicle: saline): 16 % of control
- T/C (endpoint: median tumor weight (est.), dose: 8.0 mg/kg/injection, schedule: Q07DX005 (ip), vehicle: saline): 10 % of control
- T/C (endpoint: median tumor weight (est.), dose: 16.0 mg/kg/injection, schedule: Q07DX005 (ip), vehicle: saline): 16 % of control

SMILES: Cc1cc(Nc2ccc3c(c2)OCO3)c2cc3c(cc2n1)OCO3
- T/C (endpoint: median tumor weight change, dose: 125.0 mg/kg/injection, schedule: Q01DX001 (ip), vehicle: Klucel (hydroxypropylcellulose) (HPC)): 54 % of control

SMILES: CCn1cnc2c(=S)nc[nH]c21
- T/C [4]: 66 % of control
- T/C [5]: 50 % of control
- T/C (endpoint: median tumor weight change, dose: 500.0 mg/kg/injection, schedule: Q01DX001 (ip), vehicle: saline with Tween-80): 64 % of control
- T/C (endpoint: median tumor weight change, dose: 1000.0 mg/kg/injection, schedule: Q01DX001 (ip), vehicle: saline with Tween-80): 39 % of control

SMILES: O=C1C=C(C2OC(CO)C(O)C2O)C(=O)N1 (stereo not drawn)
- T/C (endpoint: median tumor weight (est.), dose: 1.56 mg/kg/injection, schedule: Q07DX005 (ip), vehicle: saline): 73 % of control
- T/C [1]: 114 % of control

SMILES: Oc1cc2ccccc2c(-c2c(O)c(O)cc3ccccc23)c1O
- T/C (endpoint: median tumor weight (est.), dose: 25.0 mg/kg/injection, schedule: Q07DX005 (ip), vehicle: saline with Tween-80): 67 % of control
- T/C [10]: 55 % of control
- T/C [11]: 109 % of control
